Reference: paper PMC12388300, “The Chelating Abilities of Tertiary Amines with N-O-Donors Towards Cu(II) Ions and the Catalytic Properties of the Resulting Complexes” (Molecules, 2025)
Marks after values point to notes of the source that are not given here.

Legend:
[1] = Cyclic voltammetry of the Cu(II)/Cu(I) couple; format: physicochemical; conditions: for ΔE: Epc − Epa; for ΔE / │ia/ic│ / E1/2: PBS pH 7.8; for │ia/ic│: peak current ratio; for E1/2 / Epa / Epc: vs NHE; for E1/2: E1/2=(Epc+Epa)/2; for Epa / Epc: PBS 10 mM, 150 mM NaCl, pH 7.8, 0.25 mM complex
Method: To assess this behavior, the corresponding redox potentials were measured by cyclic voltammetry (CV), offering key insights into the electron-transfer properties of the complexes. The metal ion redox potential should ideally lie between the potential for oxidation (−0.16 V vs. NHE) (Equation (1)) and reduction (0.89 V vs. NHE) of superoxide radicals (Equation (2)).(1) O2∙−→O2+e^− (2) O2∙−+e^−+H^+→H2O2
The key electrochemical parameters extracted from the cyclic voltammograms are summarized in Table 3, highlighting a similar redox behavior of the complexes with both ligands. However, the nature of the anion appears to influence the properties of the mononuclear species formed in situ, compared with the isolated complexes.
Cyclic voltammetry experiments were carried out using a BAS Cell C3 EC-epsilon potentiostat equipped with a conventional three-electrode system consisting of a glassy carbon working electrode (3 mm diameter, geometric surface 7 mm^2), a platinum wire counter electrode (CE), and a silver/silver chloride reference electrode (Ag/AgCl, 3 M KCl). Voltammograms were recorded in phosphate-buffered saline (PBS; 10 mM, 150 mM NaCl, pH 7.8) containing 0.25 mM of the complex. The measurements were performed within a potential window from −600 mV to +400 mV, employing various scan rates (50 mV/s, 100 mV/s, 200 mV/s, 400 mV/s, and 800 mV/s).

[2] = CAT-like activity: O2 pressure from hydrogen peroxide dismutation; format: biochemical; set-up: Rmax: unit not given here; conditions: [catalyst] = 200 μM, [H2O2] = 20–30 mM in BBS 50 mM, pH = 7.8
Method: The studied catalase-like activity of the complexes was evaluated by measuring the pressure resulting from the oxygen produced during the dismutation of the hydrogen peroxide. For this analysis, a borate-based buffer system (BBS 50 mM, pH 7.8) was utilized to avoid the competitive binding of phosphate anions.
Catalytic measurement assays were conducted using a Varian Cary 100 spectrophotometer with a 3 mL quartz cuvette (1 cm path length) for evaluating SOD-like activity. For the assessment of peroxidase-mimicking activity, a Varian Cary 50 instrument and identical cuvettes were utilized. To monitor the CAT-like activity, a 25 mL vial, equipped with a septum for solution injection, was used as a reactor and connected to a pressure transducer. […]
To monitor the CAT-like activity, a 25 mL vial was used as a reactor, connected to a pressure transducer and
a septum for the injection.

[3] = SOD activity, indirect cytochrome C (CytC) assay, xanthine/xanthine oxidase; format: biochemical; conditions: [CytC] = 10 μM, pH = 7.8; for IC50: CytC assay, [xanthine] = 40 μM, [xanthine oxidase] = 0.0053 U/mL, phosphate buffer 50 mM; for Log (kcat): kcat(O2•−)=kCytC·[CytC]/IC50, kCytC=2.6×10^5 M^−1s^−1
Method: To reduce uncertainty about the actual active species involved in the reaction, the catalytic investigations were made with the isolated species. The ability to catalyze superoxide dismutation was assessed using the indirect cytochrome C-based assay originally introduced by McCord and Fridovich. In this kind of test, the presence of a catalyst with SOD activity, acting as a scavenger for O2^•− and generated via a xanthine/xanthine oxidase system, prevents the electron transfer to cytochrome C (Cyt C) to form […].
Catalytic measurement assays were conducted using a Varian Cary 100 spectrophotometer with a 3 mL quartz cuvette (1 cm path length) for evaluating SOD-like activity. For the assessment of peroxidase-mimicking activity, a Varian Cary 50 instrument and identical cuvettes were utilized. To monitor the CAT-like activity, a 25 mL vial, equipped with a septum for solution injection, was used as a reactor and connected to a pressure transducer.

[4] = Peroxidase activity: morin oxidation with H2O2; format: biochemical; conditions: after 16 h with H2O2; [Morin] = 0.16 mM, [Catalyst] = 1.6 μM, [H2O2] = 0.01 M, PBS 50 mM, pH 7.8
Method: Since initial antioxidant evaluations were conducted without incorporating oxidizable substrates, it is therefore essential to assess the behavior of the complexes in the presence of organic substrates. To this aim, we employed two distinct categories of model substrate: morin and o-phenylenediamine (OPD). We evaluated the spectral changes during morin oxidation, i.e., absorbance decreases for the substrate (Figure 7 and Figures S50–S53 in the Supporting Materials) and increase for the 2,3-diaminephenazine (DAP), the product of the oxidative degradation of the OPD (Figures S55–S58 in the Supporting Materials).
Figure 7 Residual absorbance of morin at the maximum absorption (390 nm) after reaction of the complexes with H2O2 for 16 h. [Morin] = 0.16 mM, [Catalyst] = 1.6 μM, [H2O2] = 0.01 M, PBS buffer (50 mM), pH 7.8.
Peroxidase activity was evaluated via UV-Vis spectroscopy by monitoring the time-dependent absorbance changes of oxidized substrates in the presence of H₂O₂ and copper complexes. Two substrates were used: morin and o-phenylenediamine (OPD).
For morin, the oxidative degradation (Figure S49) was evidenced by a decrease in absorbance at 390 nm. […]
The reaction kinetics were monitored over 18 hours with spectra collected every 20 minutes (Figures S50–S53). […]
Figure S50: Absorbance variation of the morine, with the complex Cu(HL1)(ClO 4)2. […]

[5] = UV–Vis monitoring of complex stability during H2O2 dismutation; format: physicochemical; conditions: complex 200 μM, H2O2 10 mM in BBS 50 mM pH 7.8
Description: The reaction progression was monitored by UV–Vis to gather insights into the stability of the complexes during H2O2 dismutation (Figures S45–S48 in Supplementary Materials). Analyzing the spectra recorded for the systems derived from HL1 and HL5, it is possible to observe changes in the absorption bands. In the case of the mononuclear species containing HL1, the alteration in the absorption band takes place over a comparatively extended period, in agreement with the occurrence of the delay period previously noted. The intensity associated with the π→π * electronic transition progressively diminishes, coinciding with a rise in molecular oxygen generation. Such a trend implies structural reconfiguration within the coordination environment of the complex, which appears necessary to initiate the catalytic event. On the other hand, the characteristic absorption feature vanishes after 4 h as a result of the formation of radical species. The UV–Vis profile of the complex Cu(HL5)(ClO4)2 (Figure S46) undergoes a faster modification.
Figure S46: UV-Vis spectra of Cu(HL5)(ClO4)2 at time 0 (red) and after 7 h (light red). The colours variation represents an increment of 5 min from t=0 to t=15 min, of 15 min from t=15 to t= 45 min and 45 min from t= 45 to t=360 min.
Conditions: [Cu(HL5)(ClO4)2]= 200 uM, [H2O2]=10mM in BBS 50mM pH=7.8. Zoom: temporal trends compared to O2 (red) and Abs (light red) on the maximum absorption at 294 nm.
Figure S47: UV-Vis spectra of Cu2(L1)2(ClO4)2 at time 0 (blue) and after 24 hours (light blue). Every change of colors represents a temporal increase of 90 minutes. Conditions: [Cu2(L1)2(ClO4)2] = 200 µM, [H2O2] = 10 mM in BBS 50 mM, pH = 7.8. Zoom: temporal trends compared to O2 (blue) and Abs (light blue) on the maximum absorption at 288 nm.
Figure S48: UV-Vis spectra of Cu2(L5)2(ClO4)2 at time 0 (dark green) and after 24 hours (light green). Every change of colours represents a temporal increase of 90 minutes. Conditions: [Cu2(L5)2(ClO4)2] = 200 µM, [H2O2] = 10 mM in BBS 50 mM, pH = 7.8. […]

Row | Compound | ΔE [1] [V] | │ia/ic│ [1] | E1/2 [1] [V] | Epa [1] [V] | Epc [1] [V] | Time (to maximum O2 production) [2] [min] | O2 generated ([2]; triplicate, ±10% error) [mmol/L] | Rmax ([2]; triplicate, ±10% error) | IC50 [3] [nM] | Log (kcat) [3] | residual absorbance of morin (390 nm) [4] [%] | time in which the π→π* absorbance feature fades / changes [5]
1 | COc1cccc(CN(Cc2ccccn2)Cc2ccccn2)c1[O-].COc1cccc(CN(Cc2ccccn2)Cc2ccccn2)c1[O-].[Cu+2].[Cu+2].[O-][Cl+3]([O-])([O-])[O-].[O-][Cl+3]([O-])([O-])[O-] [Cu2(L5)2(ClO4)2] | −0.081 | 0.90 | −0.179 | −0.138 | −0.219 | 950 | 7.7 | 0.36 | 1280 | 6.31 ^h | 40 | ≤ 90 min
2 | COc1cccc(CN(Cc2ccccn2)Cc2ccccn2)c1O.[Cu+2].[O-][Cl+3]([O-])([O-])[O-].[O-][Cl+3]([O-])([O-])[O-] [Cu(HL5)(ClO4)2] | −0.106 | 0.52 | −0.149 | −0.096 | −0.202 | 1300 | 9.8 | – | 1040 | 6.41 ^h | 21 | approximately 60 min
